Source: paper PMC5152890 (PLoS ONE, 2016)
Like-named read-outs stand apart in the source and are kept apart here.

Assays:
hVEGFR1-ECD = biological target: T1, hVEGFR1-ECD (Homo sapiens, UniProt P17948); assay type: binding; settings: for % displacement at 30 μM: 1% DMSO; for IC50: read-out: IC50 [95% CI]; for effect on the competition assay (in words): divalent cations, VEGF-A/hVEGFR1 interaction
T1 construct: purchased R&D Systems, Abingdon, UK

hVEGFR1d2 = biological target: T2, hVEGFR1d2 (Homo sapiens, UniProt P17948); experiment: analytical size exclusion chromatography of hVEGFR1d2 dimerization; settings: 1 mM CuSO4, 160 μM hVEGFR1d2, gel filtration
T2 construct: The human hVEGFR1d2 protein (residues 132–226) was expressed and purified; made in house; host or cells: E. coli Rosetta-gami(DE3)pLysS is stated only for the 15N-labelled batch
T2 sequence (P17948 132-226): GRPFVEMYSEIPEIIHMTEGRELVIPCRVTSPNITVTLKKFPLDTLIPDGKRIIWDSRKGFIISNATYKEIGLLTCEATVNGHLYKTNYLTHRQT
Procedure: Because the competition assay results indicated a higher effect of Cu^2+ ions compared to Zn^2+ or Co^2, the Cu^2+-induced dimerization of hVEGFR1d2 in solution was verified using analytical gel-filtration chromatography. In the presence of 1 mM EDTA a single hVEGFR1d2 peak was observed, which represents the monomer (apparent MW = 14.9 kDa). In the presence of 1 mM CuSO4, two peaks were eluted corresponding respectively to the hVEGFR1d2 dimer (78% of absorption, apparent MW = 27.9 kDa) and monomer (apparent MW = 15.8 kDa). SDS-PAGE analysis confirmed that both peaks consist of hVEGFR1d2 (Fig 7).
The Cu^2+-induced dimerization of hVEGFR1d2 was confirmed using a precalibrated analytical gel-filtration column (Superdex™75 HR 10/300 Amersham GE Healthcare, Little Chalfont, UK). Prior to loading, samples were prepared by incubating 160 μM hVEGFR1d2 in a buffer containing 25 mM Tris-HCl, pH 8.1, 250 mM NaCl, and either 1 mM EDTA or 1mM CuSO4 for 30 min at 18°C. Subsequently, 50 μL of this mixture was loaded at 0.5 mL/min on the column that was equilibrated with the identical respective buffers. Elution peaks were integrated, and the corresponding fractions were analyzed on SDS-PAGE.

[1] = biotinylated VEGF-A165 displaced by 30 μM of metal on whole ECD (d1-d7) of VEGFR1
[2] = concentration displacing 50% of biotinylated VEGF-A165 binding on VEGFR1 (ECD)

T1 sequence (P17948 27-687 isoform P17948-2): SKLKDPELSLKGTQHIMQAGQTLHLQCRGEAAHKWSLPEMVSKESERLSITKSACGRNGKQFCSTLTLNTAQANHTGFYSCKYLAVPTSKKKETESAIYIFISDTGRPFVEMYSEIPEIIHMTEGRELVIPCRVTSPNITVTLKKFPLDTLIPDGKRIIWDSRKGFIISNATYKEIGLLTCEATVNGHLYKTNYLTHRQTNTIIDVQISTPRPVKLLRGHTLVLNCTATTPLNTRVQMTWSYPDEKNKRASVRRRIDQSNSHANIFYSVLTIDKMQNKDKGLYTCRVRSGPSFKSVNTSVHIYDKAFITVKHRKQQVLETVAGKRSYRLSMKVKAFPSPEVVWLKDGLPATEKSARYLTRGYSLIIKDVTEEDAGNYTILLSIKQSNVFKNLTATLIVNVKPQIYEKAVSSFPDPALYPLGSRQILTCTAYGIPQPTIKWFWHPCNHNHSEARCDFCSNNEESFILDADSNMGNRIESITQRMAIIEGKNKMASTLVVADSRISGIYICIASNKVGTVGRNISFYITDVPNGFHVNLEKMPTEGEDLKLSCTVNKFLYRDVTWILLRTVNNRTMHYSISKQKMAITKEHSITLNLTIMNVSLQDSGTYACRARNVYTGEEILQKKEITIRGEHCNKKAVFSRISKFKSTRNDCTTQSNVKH

SMILES	% displacement at 30 μM (hVEGFR1-ECD; [1])	IC50 (hVEGFR1-ECD; [2])	other results
O=S(=O)([O-])[O-].[Ni+2] [NiSO4]	75 ± 1%	3.54 µM	
[Cl][Pd][Cl] [PdCl2]	93 ± 1%	0.25 µM	
O=S(=O)([O-])[O-].[Cu+2] [CuSO4]	83 ± 8%	0.97 µM	hVEGFR1d2 dimer peak, % of absorption (hVEGFR1d2): 78%
O=S(=O)([O-])[O-].[Zn+2] [ZnSO4]	61 ± 2%	5.94 µM	
[Fe+2] [Fe^2+]			effect on the competition assay (in words) (hVEGFR1-ECD): no effect
O=S(=O)([O-])[O-].[Na+].[Na+] [Na2SO4]	0%		
O=S(=O)([O-])[O-].[Fe+2] [FeSO4]	13 ± 5%		
[Co+2] [Co^2+]			effect on the competition assay (in words) (hVEGFR1-ECD): little
[Ni+2] [Ni^2+]			IC50 [95% CI] (hVEGFR1-ECD; [2]): within the micromolar range
O=S(=O)([O-])[O-].[Mn+2] [MnSO4]	0%		
O=S(=O)([O-])[O-].[Co+2] [CoSO4]	44 ± 1%		
[Cl][Cu][Cl] [CuCl2]	87 ± 2%	1.26 µM	
[Mn+2] [Mn^2+]			effect on the competition assay (in words) (hVEGFR1-ECD): no effect
[Cl][Cd][Cl] [CdCl2]	38 ± 4%	48 µM	
CC(=O)[O-].CC(=O)[O-].[Cu+2] [Cu(OAc)2]	69 ± 2%	1.32 µM	
[Cu+2] [Cu^2+]			disruption of the VEGF-A/hVEGFR1-ECD interaction in the presence of a metal chelator (hVEGFR1-ECD; with EDTA, 1 eq.): unable to disrupt the VEGF-A/hVEGFR1-ECD interaction
[Cd+2] [Cd^2+]			effect on the competition assay (in words) (hVEGFR1-ECD): little
[Cl-].[Cl-].[Co+2] [CoCl2]			% displacement at 30 μM (hVEGFR1-ECD): 40 ± 2%; IC50 (hVEGFR1-ECD): 47.1 µM
CC(=O)[O-].CC(=O)[O-].[Pd+2] [Pd(OAc)2]	97 ± 3%	0.36 µM	
[Zn+2] [Zn^2+]			IC50 [95% CI] (hVEGFR1-ECD; [2]): within the micromolar range
